The test addresses sarco/endoplasmic reticulum calcium ATPase (SERCA) (Oryctolagus cuniculus, UniProt P04191). The experiment in a line: SERCA-catalyzed ATP hydrolysis, coupled PK/LDH NADH oxidation assay.

This note sets out measurements from PMC2752035 (Bioorganic & medicinal chemistry, 2009).

sarco/endoplasmic reticulum calcium ATPase (SERCA), sequence (P04191 1-994 isoform P04191-2): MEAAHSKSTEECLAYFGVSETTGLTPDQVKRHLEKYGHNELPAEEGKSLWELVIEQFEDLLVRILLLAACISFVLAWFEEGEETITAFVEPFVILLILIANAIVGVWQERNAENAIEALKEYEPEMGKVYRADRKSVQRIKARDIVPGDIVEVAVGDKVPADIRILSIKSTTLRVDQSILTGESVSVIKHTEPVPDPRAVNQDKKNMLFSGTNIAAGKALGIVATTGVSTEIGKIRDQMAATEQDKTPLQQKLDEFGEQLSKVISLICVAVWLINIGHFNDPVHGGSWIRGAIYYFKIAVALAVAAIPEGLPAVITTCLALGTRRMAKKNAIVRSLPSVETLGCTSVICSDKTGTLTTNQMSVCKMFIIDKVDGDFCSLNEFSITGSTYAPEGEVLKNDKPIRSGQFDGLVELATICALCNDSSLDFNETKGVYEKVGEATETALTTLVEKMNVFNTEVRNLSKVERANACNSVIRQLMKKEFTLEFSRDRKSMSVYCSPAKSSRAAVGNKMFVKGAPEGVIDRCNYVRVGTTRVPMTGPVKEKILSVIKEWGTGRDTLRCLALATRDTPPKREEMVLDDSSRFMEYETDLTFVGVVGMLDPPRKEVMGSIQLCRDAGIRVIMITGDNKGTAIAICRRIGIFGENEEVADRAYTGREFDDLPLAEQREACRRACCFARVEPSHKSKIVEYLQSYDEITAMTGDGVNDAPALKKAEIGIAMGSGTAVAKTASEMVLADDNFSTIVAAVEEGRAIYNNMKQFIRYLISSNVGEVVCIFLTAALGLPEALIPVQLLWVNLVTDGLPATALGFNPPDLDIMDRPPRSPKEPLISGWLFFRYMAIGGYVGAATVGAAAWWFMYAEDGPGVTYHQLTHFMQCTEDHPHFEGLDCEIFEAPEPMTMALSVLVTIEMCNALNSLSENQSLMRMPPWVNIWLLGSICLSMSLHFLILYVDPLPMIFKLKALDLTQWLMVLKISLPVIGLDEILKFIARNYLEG

Take `CC(C)(C)OC(=O)NCCCC(=O)Oc1cc(C(C)(C)C)c(OC(=O)CCCNC(=O)OC(C)(C)C)cc1C(C)(C)C` [8a]: the “SERCA inhibition (activity in words)” value was “inactive”.
